# These antisense oligonucleotides have a phosphorothioate backbone; sugars and methylation of C are not fully specified.
# Columns and labels:
# Settings in all cases: ASO
# DUSP8 = biological target: DUSP8
# PIK3CB = biological target: PIK3CB
# DUSP9 = biological target: DUSP9
# MAP2K1 = biological target: MAP2K1
# Note: test concentration or dose not given here.
sequence,measurement,setting,value
TTCTTTGCATTATATATAAT,remaining target (mRNA or protein) (fraction of control),DUSP8,≥ 1
CAGGGCGGCCAGCAGCTTCA,remaining target (mRNA or protein) (fraction of control),DUSP8,≥ 1
GGCATTATGAAACTGAAGCA,remaining target (mRNA or protein) (fraction of control),PIK3CB,≥ 1
GGGCCCCGCAGCAGCAAAAG,remaining target (mRNA or protein) (fraction of control),DUSP9,0.35
ATTCCCATGCCGTCGTAAAA,remaining target (mRNA or protein) (fraction of control),PIK3CB,≥ 1
TACCAGAGACAGTCCCAT,remaining target (mRNA or protein) (fraction of control),MAP2K1,0.24
ACCAGCCCTGACATGAACTT,remaining target (mRNA or protein) (fraction of control),PIK3CB,0.45
GATGTCTGCCATAGCAGGAG,remaining target (mRNA or protein) (fraction of control),PIK3CB,≥ 1
TAACGCGCTTCCAACTCC,remaining target (mRNA or protein) (fraction of control),MAP2K1,0.3
TGCCCATGGTCTTCATGATG,remaining target (mRNA or protein) (fraction of control),DUSP8,0.7
AGCGGCCCAGACCCTCCATG,remaining target (mRNA or protein) (fraction of control),DUSP9,0.46
CAGCGCAAAGAGAGTGATGA,remaining target (mRNA or protein) (fraction of control),PIK3CB,≥ 1
ATGCAAACATATAGGAGTCA,remaining target (mRNA or protein) (fraction of control),PIK3CB,≥ 1
TGGTCATAGACCACCACGTC,remaining target (mRNA or protein) (fraction of control),DUSP8,≥ 1
AGTAGCCAGCACAGGACAGT,remaining target (mRNA or protein) (fraction of control),PIK3CB,≥ 1
CGTCGCGGCCGGGAAGTTTC,remaining target (mRNA or protein) (fraction of control),DUSP9,0.95
ATTGAGTGCTTCAACCTGCT,remaining target (mRNA or protein) (fraction of control),PIK3CB,≥ 1
CATGGGCGATCGGCTCCCTA,remaining target (mRNA or protein) (fraction of control),DUSP9,0.85
CGAGCCCTCCTGCCCTCCCC,remaining target (mRNA or protein) (fraction of control),DUSP9,0.65
GAGGTTGAACATTGGGTAAT,remaining target (mRNA or protein) (fraction of control),PIK3CB,0.79
GAGGATAACACATGGGTTCA,remaining target (mRNA or protein) (fraction of control),PIK3CB,≥ 1
GGGCAGCCCGGGCGCCGACA,remaining target (mRNA or protein) (fraction of control),DUSP8,0.81
AGGCCGATGGTGGAGCAG,remaining target (mRNA or protein) (fraction of control),MAP2K1,0.14
ATTAAGCATTTATTCACA,remaining target (mRNA or protein) (fraction of control),MAP2K1,≥ 1
TCTGCTTCTGGGTAAGAA,remaining target (mRNA or protein) (fraction of control),MAP2K1,≥ 1
CATATTAGGAGACACTTGAA,remaining target (mRNA or protein) (fraction of control),PIK3CB,≥ 1
GTAGGTGGTGGCAGCCGTGG,remaining target (mRNA or protein) (fraction of control),DUSP8,≥ 1
GTAATCCAACAACTCAAA,remaining target (mRNA or protein) (fraction of control),MAP2K1,0.79
AGGCCCCAGCCCCGAGAGGC,remaining target (mRNA or protein) (fraction of control),DUSP9,0.54
TGGAGCTTCTGCATGAGGTA,remaining target (mRNA or protein) (fraction of control),DUSP9,0.75
CCTCCATGGGCGATCGGCTC,remaining target (mRNA or protein) (fraction of control),DUSP9,0.7
TACATTTTCTTGATCTTGCA,remaining target (mRNA or protein) (fraction of control),PIK3CB,≥ 1
CAGCAGGGTGCCCAGCACCG,remaining target (mRNA or protein) (fraction of control),DUSP9,≥ 1
TATAAGAAATGGTAGCTTCC,remaining target (mRNA or protein) (fraction of control),PIK3CB,≥ 1
TATTGAGAAAGTTCTTCATC,remaining target (mRNA or protein) (fraction of control),PIK3CB,0.86
GACAGAAATGAATGACTGTG,remaining target (mRNA or protein) (fraction of control),DUSP9,0.14
GCCTGTCCTTCACGAACCTG,remaining target (mRNA or protein) (fraction of control),DUSP8,≥ 1
TAAGGCAACATCCGAAGATC,remaining target (mRNA or protein) (fraction of control),PIK3CB,0.96
AATTGTGAACTTGCTTCCAT,remaining target (mRNA or protein) (fraction of control),PIK3CB,0.74
TACAACAGCATTGGTACT,remaining target (mRNA or protein) (fraction of control),MAP2K1,0.23
AAGGATTTTCATACAATT,remaining target (mRNA or protein) (fraction of control),MAP2K1,0.7
ACTAAGTATCCCACACAG,remaining target (mRNA or protein) (fraction of control),MAP2K1,0.16
CTACCCACATTCACCAAA,remaining target (mRNA or protein) (fraction of control),MAP2K1,0.72
TGCCAATTCATTTACTTTGA,remaining target (mRNA or protein) (fraction of control),PIK3CB,≥ 1
GATCCTTCAAGGAATCAAAT,remaining target (mRNA or protein) (fraction of control),PIK3CB,0.91
CTCTTTGTTGCTTCCCAA,remaining target (mRNA or protein) (fraction of control),MAP2K1,0.38
GAAGGATCTCACAAGGCT,remaining target (mRNA or protein) (fraction of control),MAP2K1,0.27
TGGAGTCTTTCTGGCGAC,remaining target (mRNA or protein) (fraction of control),MAP2K1,0.44
CCTCAGGCGCGGCGTCCGGG,remaining target (mRNA or protein) (fraction of control),DUSP8,≥ 1
TCTGCCGGGCCGCATCGCCG,remaining target (mRNA or protein) (fraction of control),DUSP8,0.35
CACCGCCCAGATGTCAAGGA,remaining target (mRNA or protein) (fraction of control),PIK3CB,0.5
GTCAGGACACCTCGATGACC,remaining target (mRNA or protein) (fraction of control),DUSP8,≥ 1
ATTAGTGGATGATCACCAAA,remaining target (mRNA or protein) (fraction of control),PIK3CB,0.99
TCGCCTGCTTGCCCAGGGCG,remaining target (mRNA or protein) (fraction of control),DUSP8,0.69
GTCGAAGCAGCCGTCCAGCT,remaining target (mRNA or protein) (fraction of control),DUSP8,≥ 1
TAAACACGTCCTGGCAGTTT,remaining target (mRNA or protein) (fraction of control),PIK3CB,≥ 1
GGCCTTTTATTACAGCAA,remaining target (mRNA or protein) (fraction of control),MAP2K1,0.5
AGAGCGGGAGATGCCAGCCA,remaining target (mRNA or protein) (fraction of control),DUSP8,0.32
CATGAACCATGAGTTGCT,remaining target (mRNA or protein) (fraction of control),MAP2K1,0.24
GGCCAGCCGGTCCGCGCGTC,remaining target (mRNA or protein) (fraction of control),DUSP8,0.52
AGGAGAGGTGCAGGCCGCGC,remaining target (mRNA or protein) (fraction of control),DUSP8,0.91
TTCACTTTAGTAGTCCAGCT,remaining target (mRNA or protein) (fraction of control),PIK3CB,0.89
ATCAGATCCTTGTTTAGGAC,remaining target (mRNA or protein) (fraction of control),DUSP8,≥ 1
GTCAATATCCATAAGGAGGT,remaining target (mRNA or protein) (fraction of control),PIK3CB,≥ 1
TTCCAGCTTTCTTCAGGA,remaining target (mRNA or protein) (fraction of control),MAP2K1,0.58
TGCTATCTGTGAATCCACCG,remaining target (mRNA or protein) (fraction of control),PIK3CB,0.99
TGAAGCCCCAGCTATCAT,remaining target (mRNA or protein) (fraction of control),MAP2K1,0.41
ATGAACAGCTACGATGAGCT,remaining target (mRNA or protein) (fraction of control),PIK3CB,0.73
